Results taken from patent US20250214991A1 (Oncopia Therapeutics, Inc. d/b/a/ SK Life Science Labs, priority 2022, published 2025).

Experiments:
[1] = molecular target: IKZF2 (Homo sapiens (Human), UniProt Q96SW2+Q9UKS7); experiment: In vitro IKZF2 HiBit Assay (HEK293T Flp-in-HiBiT cells); format: cell-based; details: HEK293T Flp-in-HiBiT cells, 6 hrs incubation; for DC50: read-out: IKZF2 HiBit DC50; for Dmax: HEK-293T, read-out: IKZF2 HiBit Dmax (%)
Method: In Vitro IKZF2 HiBit Assay
The HiBiT protein tagging system was applied to modified HEK293T Flp-in-HiBiT cells (polyclone) via a CRISPR/Cas9-mediated insertion of the HiBiT peptide tag (Promega™) to the N-terminus of the IKZF2 gene locus (Neon™ transfection system). Test and reference compounds are diluted from 1 mM at 3 folds for 11 doses. 25 nL of diluted compound is transfered to assay plates (Corning3570) using ECHO550, the final DMSO concentration @ 0.1%. The cells are seeded in 3000/25 μL/well to compound plates. It is then incubated for 6 hrs in TC incubator. The amount of Nano-Glo® HiBiT lytic reagent needed to perform the desired experiments is calculated. The Nano-Glo® HiBiT lytic reagent is brought to room temperature. The LgBiT protein is diluted to 1:100 and the Nano-Glo® HiBiT lytic substrate is diluted to 1:50 into an appropriate volume of room temperature Nano-Glo® HiBiT lytic buffer. 15 μL of the detection reagent (or without LgBiT) is dispensed to corresponding well according to the layout. The plate is then shaked for 10 mins at room temperature. After briefly centrifuge, the plate is read on Envision. At the indicated timepoints, the Nano-Glo® HiBiT lytic detection system (Promega™) was utilized for detecting bioluminescence of the HiBiT tag in treated cells: abundance of the tag is proportionate to the level of luminescence. Following normalization to DMSO, dose-response curves were plotted (GraphPad Prism) to determine the concentration points at which 50% of HiBiT-Helios degradation was achieved by each compound. The extent of degradation (range of luminescence) from the highest to lowest concentration points was calculated to determine the Dmax.
(§1) DC50, A: <1 nM; B: 1-10 nM; C: 10-100 nM; D: 100-1000 nM; E: 1000-10000 nM; F: >10,000 nM. Dmax, A: >80%; B: 60-80%; C: 40-60%; D: 20-40%; E: <20%.

[2] = molecular target: IKZF1 (Homo sapiens (Human), UniProt Q13422+Q96SW2); experiment: In vitro IKZF1 HiBit Assay (HEK293T Flp-in-HiBiT-IKZF1 stable cell line); format: cell-based; details: HEK293T Flp-in-HiBiT-IKZF1 stable cell line, 6 hrs incubation; for DC50: read-out: IKZF1 HiBit DC50; for Dmax: HEK-293T, read-out: IKZF1 HiBit Dmax (%)
Method: In Vitro IKZF1 HiBit Assay
The HiBiT protein tagging system was applied to modified Cells: modified HEK293T Flp-in-HiBiT-IKZF1 stable cell line (polyclone) via a CRISPR/Cas9-mediated insertion of the HiBiT peptide tag (Promega™) to the N-terminus of the […] gene locus (Neon™ transfection system).
25 nL of diluted compound is transferred to assay plates (Corning3571) using ECHO550, the final DMSO concentration @ 0.1%. The cells are seeded in 3000/25 μL/well to compound plates. The plates are incubated for 6 hrs in TC incubator. The amount of Nano-Glo® HiBiT lytic reagent needed to perform the desired experiments is calculated. The Nano-Glo® HiBiT lytic reagent is brought to room temperature. The LgBiT protein is diluted to 1:100 and the Nano-Glo® HiBiT lytic substrate is brought to 1:50 into an appropriate volume of room temperature Nano-Glo® HiBiT lytic buffer. 15 μL of the detection reagent (or without LgBiT) is dispensed to corresponding well according to the layout. The plate is shaked for 10 mins at room temperature. After briefly centrifuge, the plateis read on Envision. At the indicated timepoints, the Nano-Glo® HiBiT lytic detection system (Promega™) was utilized for detecting bioluminescence of the HiBiT tag in treated cells: abundance of the tag is proportionate to the level of luminescence. Following normalization to DMSO, dose-response curves were plotted (GraphPad Prism) to determine the concentration points at which 50% of HiBiT-Ikaros degradation was achieved by each compound. The extent of degradation (range of luminescence) from the highest to lowest concentration points was calculated to determine the Dmax.
as §1

IKZF2, sequence (Q9UKS7 whole entry): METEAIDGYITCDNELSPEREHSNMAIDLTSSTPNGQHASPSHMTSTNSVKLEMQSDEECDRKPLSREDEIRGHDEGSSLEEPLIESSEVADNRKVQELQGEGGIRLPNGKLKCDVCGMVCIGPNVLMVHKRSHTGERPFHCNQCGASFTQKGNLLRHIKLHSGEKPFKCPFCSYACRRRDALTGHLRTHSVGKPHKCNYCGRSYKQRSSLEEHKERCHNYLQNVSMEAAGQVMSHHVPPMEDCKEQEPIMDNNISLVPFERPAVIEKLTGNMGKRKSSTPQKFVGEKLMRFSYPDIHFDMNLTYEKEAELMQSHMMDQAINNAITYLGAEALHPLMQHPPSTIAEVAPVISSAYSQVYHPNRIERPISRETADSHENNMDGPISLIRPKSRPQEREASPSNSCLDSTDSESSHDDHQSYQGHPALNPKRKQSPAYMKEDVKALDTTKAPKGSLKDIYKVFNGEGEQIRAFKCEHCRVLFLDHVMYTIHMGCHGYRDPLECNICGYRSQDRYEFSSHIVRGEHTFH
IKZF2, sequence (Q96SW2 whole entry): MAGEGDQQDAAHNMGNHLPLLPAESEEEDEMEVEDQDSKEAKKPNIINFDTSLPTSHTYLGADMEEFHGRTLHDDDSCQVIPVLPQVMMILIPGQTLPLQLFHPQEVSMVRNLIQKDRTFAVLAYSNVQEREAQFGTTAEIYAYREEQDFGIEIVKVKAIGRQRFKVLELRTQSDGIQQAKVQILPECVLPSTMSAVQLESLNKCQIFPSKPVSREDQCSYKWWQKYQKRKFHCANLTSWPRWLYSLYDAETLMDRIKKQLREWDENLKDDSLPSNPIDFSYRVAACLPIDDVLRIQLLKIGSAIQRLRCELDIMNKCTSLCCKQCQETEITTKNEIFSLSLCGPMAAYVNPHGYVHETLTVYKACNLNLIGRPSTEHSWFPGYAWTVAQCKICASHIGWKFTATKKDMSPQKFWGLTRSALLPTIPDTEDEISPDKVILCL
IKZF2, sequence (Q16531 2-1140 partner): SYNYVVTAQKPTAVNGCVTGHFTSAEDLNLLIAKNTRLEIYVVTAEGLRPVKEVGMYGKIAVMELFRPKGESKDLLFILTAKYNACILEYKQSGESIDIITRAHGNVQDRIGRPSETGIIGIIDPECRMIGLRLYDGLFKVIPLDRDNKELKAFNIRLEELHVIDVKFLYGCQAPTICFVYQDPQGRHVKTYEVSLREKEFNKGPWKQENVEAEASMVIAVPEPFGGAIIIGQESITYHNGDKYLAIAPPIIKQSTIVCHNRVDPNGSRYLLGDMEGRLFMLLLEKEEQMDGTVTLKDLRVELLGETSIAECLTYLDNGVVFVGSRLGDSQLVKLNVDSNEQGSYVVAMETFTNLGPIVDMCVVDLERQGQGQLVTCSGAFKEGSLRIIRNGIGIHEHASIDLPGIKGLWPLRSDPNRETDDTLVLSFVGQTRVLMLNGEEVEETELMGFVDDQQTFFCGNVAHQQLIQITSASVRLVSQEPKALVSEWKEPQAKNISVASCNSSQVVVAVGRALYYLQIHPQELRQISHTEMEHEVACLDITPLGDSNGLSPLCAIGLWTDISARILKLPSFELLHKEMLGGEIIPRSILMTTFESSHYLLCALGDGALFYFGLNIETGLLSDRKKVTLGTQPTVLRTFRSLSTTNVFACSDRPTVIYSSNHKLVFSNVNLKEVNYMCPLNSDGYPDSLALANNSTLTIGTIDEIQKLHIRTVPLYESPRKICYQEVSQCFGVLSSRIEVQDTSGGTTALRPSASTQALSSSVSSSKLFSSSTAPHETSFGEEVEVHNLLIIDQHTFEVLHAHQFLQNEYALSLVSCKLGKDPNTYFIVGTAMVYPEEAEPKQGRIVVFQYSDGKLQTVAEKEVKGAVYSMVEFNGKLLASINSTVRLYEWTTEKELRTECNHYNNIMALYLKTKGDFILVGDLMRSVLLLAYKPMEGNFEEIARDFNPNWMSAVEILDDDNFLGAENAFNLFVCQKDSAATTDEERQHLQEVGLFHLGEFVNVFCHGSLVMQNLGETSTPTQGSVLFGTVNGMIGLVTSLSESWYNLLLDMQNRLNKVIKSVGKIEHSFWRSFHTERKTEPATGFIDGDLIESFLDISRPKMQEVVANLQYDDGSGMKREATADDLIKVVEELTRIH
IKZF1, sequence (Q13422 whole entry): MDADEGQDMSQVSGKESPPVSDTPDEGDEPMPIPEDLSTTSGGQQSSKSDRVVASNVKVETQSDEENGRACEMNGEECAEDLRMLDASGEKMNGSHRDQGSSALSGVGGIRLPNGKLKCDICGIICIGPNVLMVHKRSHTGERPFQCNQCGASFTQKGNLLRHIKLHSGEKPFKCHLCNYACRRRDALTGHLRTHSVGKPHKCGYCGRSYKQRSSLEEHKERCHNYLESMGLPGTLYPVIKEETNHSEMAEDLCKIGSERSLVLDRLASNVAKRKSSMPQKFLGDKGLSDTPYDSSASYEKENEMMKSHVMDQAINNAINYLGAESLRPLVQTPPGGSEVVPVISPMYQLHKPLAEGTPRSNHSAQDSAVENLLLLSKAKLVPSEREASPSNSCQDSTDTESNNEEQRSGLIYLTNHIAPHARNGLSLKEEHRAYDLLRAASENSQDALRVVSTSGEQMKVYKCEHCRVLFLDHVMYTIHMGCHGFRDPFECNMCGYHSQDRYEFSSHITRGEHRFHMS
IKZF1, sequence (Q96SW2 whole entry): as the sequence (Q96SW2 whole entry) above
IKZF1, sequence (Q16531 2-1140 partner): as the sequence (Q16531 2-1140 partner) above

| DC50 [1] [nM] | Dmax [1] [%] | DC50 [2] [nM] | Dmax [2] [%] | Compound |
| --- | --- | --- | --- | --- |
| > 10000 | < 20 | > 10000 | < 20 | O=C1CCC(N2Cc3cc(-c4cc(CN5CCCC5)c5ccn(C6COC6)c5n4)c(Cl)cc3C2=O)C(=O)N1 (centres unmarked) [Example 273, 3-(6-chloro-5-(1-(oxetan-3-yl)-4-(pyrrolidin-1-ylmethyl)-1H-pyrrolo[2,3-b]pyridin-6-yl)-1-oxoisoindolin-2-yl) piperidine-2,6-dione] |
| > 10000 | < 20 | > 10000 | < 20 | COCCOc1ccnc2c(CN3CCCC3)cc(-c3ccc4c(c3)CN(C3CCC(=O)NC3=O)C4=O)nc12 (centres unmarked) [Example 278, 3-(5-(8-(2-methoxyethoxy)-4-(pyrrolidin-1-ylmethyl)-1,5-naphthyridin-2-yl)-1-oxoisoindolin-2-yl) piperidine-2,6-dione] |
| 1000 to 10000 | 20 to 40 | > 10000 | < 20 | CC(C)Nc1n[nH]c2c(CN3CCCC3)cc(-c3ccc4c(c3)CN(C3(C)CCC(=O)NC3=O)C4=O)nc12 (centres unmarked) [Example 294, 3-(5-(3-(isopropylamino)-7-(pyrrolidin-1-ylmethyl)-1H-pyrazolo[4,3-b]pyridin-5-yl)-1-oxoisoindolin-2-yl)-3-methylpiperidine-2,6-dione] |
| > 10000 | < 20 | > 10000 | < 20 | CS(=O)(=O)Nc1n[nH]c2c(CN3CCCC3)cc(-c3ccc4c(c3F)CN(C3CCC(=O)NC3=O)C4=O)nc12 (centres unmarked) [Example 297, N-(5-(2-(2,6-dioxopiperidin-3-yl)-4-fluoro-1-oxoisoindolin-5-yl)-7-(pyrrolidin-1-ylmethyl)-1H-pyrazolo[4,3-b]pyridin-3-yl) methanesulfonamide] |
| 1 to 10 | 20 to 40 | > 10000 | < 20 | O=C1CCC(N2Cc3cc(-c4cc(CN5CCCC5)c5nccc(OCCO)c5n4)ccc3C2=O)C(=O)N1 (centres unmarked) [Example 285, 3-(5-(8-(2-hydroxyethoxy)-4-(pyrrolidin-1-ylmethyl)-1,5-naphthyridin-2-yl)-1-oxoisoindolin-2-yl) piperidine-2,6-dione] |
| 10 to 100 | 40 to 60 | > 10000 | < 20 | O=C1CCC(N2Cc3cc(-c4cc(CN5CCCC5C(F)(F)F)c5ccn(C6COC6)c5n4)ccc3C2=O)C(=O)N1 (centres unmarked) [Example 253, 3-(5-(1-(oxetan-3-yl)-4-((2-(trifluoromethyl)pyrrolidin-1-yl)methyl)-1H-pyrrolo[2,3-b]pyridin-6-yl)-1-oxoisoindolin-2-yl) piperidine-2,6-dione] |
| 1 to 10 | 60 to 80 | > 10000 | < 20 | O=C1CC[C@H](N2Cc3cc(-c4cc(CN5CCCC5)c5ccn(-c6ncco6)c5n4)ccc3C2=O)C(=O)N1 [Example 267, (S)-3-(5-(1-(oxazol-2-yl)-4-(pyrrolidin-1-ylmethyl)-1H-pyrrolo[2,3-b]pyridin-6-yl)-1-oxoisoindolin-2-yl) piperidine-2,6-dione] |
| 1 to 10 | > 80 | 100 to 1000 | 20 to 40 | O=C1CC[C@H](N2Cc3cc(-c4cc(CN5CCCC5)c5ccn(-c6cn[nH]c6)c5n4)ccc3C2=O)C(=O)N1 [Example 271, (S)-3-(5-(1-(1H-pyrazol-4-yl)-4-(pyrrolidin-1-ylmethyl)-1H-pyrrolo[2,3-b]pyridin-6-yl)-1-oxoisoindolin-2-yl) piperidine-2,6-dione] |
| < 1 | > 80 | 1 to 10 | 60 to 80 | CNc1[nH]nc2c(CN3CCCC3)cc(-c3ccc4c(c3F)CN(C3CCC(=O)NC3=O)C4=O)nc12 (centres unmarked) [Example 296, 3-(4-fluoro-5-(3-(methylamino)-7-(pyrrolidin-1-ylmethyl)-1H-pyrazolo[4,3-b]pyridin-5-yl)-1-oxoisoindolin-2-yl) piperidine-2,6-dione] |
| 1 to 10 | > 80 | 1 to 10 | 20 to 40 | O=C1CCC(N2Cc3cc(-c4cc(CN5CCCC5CF)c5ccn(C6COC6)c5n4)ccc3C2=O)C(=O)N1 (centres unmarked) [Example 257, 3-(5-(4-((2-(fluoromethyl)pyrrolidin-1-yl)methyl)-1-(oxetan-3-yl)-1H-pyrrolo[2,3-b]pyridin-6-yl)-1-oxoisoindolin-2-yl) piperidine-2,6-dione] |

Further lines, the molecule ahead of its results:

| Compound | DC50 [1] [nM] | Dmax [1] [%] | DC50 [2] [nM] | Dmax [2] [%] |
| --- | --- | --- | --- | --- |
| O=C1CCC(N2Cc3cc(-c4cc(CN5CC(CO)C5)c5ccn(C6CC6)c5n4)ccc3C2=O)C(=O)N1 (centres unmarked) [Example 152, 3-(5-(1-cyclopropyl-4-((3-(hydroxymethyl)azetidin-1-yl)methyl)-1H-pyrrolo[2,3-b]pyridin-6-yl)-1-oxoisoindolin-2-yl) piperidine-2,6-dione] | 10 to 100 | > 80 | 100 to 1000 | 20 to 40 |
| O=C1CCC(N2Cc3cc(-c4cc(CN5CCCC5)c5nccc(OC6COC6)c5n4)ccc3C2=O)C(=O)N1 (centres unmarked) [Example 251, 3-(5-(8-(oxetan-3-yloxy)-4-(pyrrolidin-1-ylmethyl)-1,5-naphthyridin-2-yl)-1-oxoisoindolin-2-yl) piperidine-2,6-dione] | 10 to 100 | 60 to 80 | > 10000 | < 20 |
| CNC(=O)Cn1ccc2c(CN3CCCC3)cc(-c3ccc4c(c3)CN(C3CCC(=O)NC3=O)C4=O)nc21 (centres unmarked) [Example 150, 2-(6-(2-(2,6-dioxopiperidin-3-yl)-1-oxoisoindolin-5-yl)-4-(pyrrolidin-1-ylmethyl)-1H-pyrrolo[2,3-b]pyridin-1-yl)-N-methylacetamide] | 10 to 100 | 60 to 80 | > 10000 | < 20 |
| CC(C)CC1CCN(Cc2cc(-c3ccc4c(c3)CN(C3CCC(=O)NC3=O)C4=O)nc3[nH]ccc23)C1 (centres unmarked) [Example 153, 3-(5-(4-((3-isobutylpyrrolidin-1-yl)methyl)-1H-pyrrolo[2,3-b]pyridin-6-yl)-1-oxoisoindolin-2-yl) piperidine-2,6-dione] | < 1 | > 80 | 10 to 100 | 40 to 60 |
| O=C1CCC(N2Cc3cc(-c4cc(CN5CCCC5)c5nccc(N6CCC6)c5n4)ccc3C2=O)C(=O)N1 (centres unmarked) [Example 243, 3-(5-(8-(azetidin-1-yl)-4-(pyrrolidin-1-ylmethyl)-1,5-naphthyridin-2-yl)-1-oxoisoindolin-2-yl) piperidine-2,6-dione] | 10 to 100 | 60 to 80 | 100 to 1000 | 20 to 40 |
| CC(C)CC1CN(Cc2cc(-c3ccc4c(c3)CN(C3CCC(=O)NC3=O)C4=O)nc3[nH]ccc23)CC1O (centres unmarked) [Example 138, 3-(5-(4-((3-hydroxy-4-isobutylpyrrolidin-1-yl)methyl)-1H-pyrrolo[2,3-b]pyridin-6-yl)-1-oxoisoindolin-2-yl) piperidine-2,6-dione] | 1 to 10 | > 80 | 100 to 1000 | 20 to 40 |
| CC(C)C1CN(Cc2cc(-c3ccc4c(c3)CN(C3CCC(=O)NC3=O)C4=O)nc3[nH]ccc23)CC1O (centres unmarked) [Example 137, 3-(5-(4-((3-hydroxy-4-isopropylpyrrolidin-1-yl)methyl)-1H-pyrrolo[2,3-b]pyridin-6-yl)-1-oxoisoindolin-2-yl) piperidine-2,6-dione] | 1 to 10 | > 80 | 10 to 100 | 20 to 40 |
